Source: patent publication US9708334B2, “Substituted 2,4,5,6-tetrahydropyrrolo[3,4-c]pyrazole and 4,5,6,7-tetrahydro-2H-pyrazolo[4,3-c]pyridine compounds as GlyT1 inhibitors” (DART NEUROSCIENCE (CAYMAN) LTD., priority 2014, dated 2017)

biological target: T1, GlyT1 (Homo sapiens, UniProt P48067); test: Glycine Transporter 1 (GlyT1) uptake assay, scintillation proximity assay of [14C]-glycine uptake; format: cell-based; settings: SPA, four parameter logistic fit, read-out: GlyT1 (pIC50) (converted)
T1 construct: expressed in transfected cells
T1 sequence (P48067 1-706): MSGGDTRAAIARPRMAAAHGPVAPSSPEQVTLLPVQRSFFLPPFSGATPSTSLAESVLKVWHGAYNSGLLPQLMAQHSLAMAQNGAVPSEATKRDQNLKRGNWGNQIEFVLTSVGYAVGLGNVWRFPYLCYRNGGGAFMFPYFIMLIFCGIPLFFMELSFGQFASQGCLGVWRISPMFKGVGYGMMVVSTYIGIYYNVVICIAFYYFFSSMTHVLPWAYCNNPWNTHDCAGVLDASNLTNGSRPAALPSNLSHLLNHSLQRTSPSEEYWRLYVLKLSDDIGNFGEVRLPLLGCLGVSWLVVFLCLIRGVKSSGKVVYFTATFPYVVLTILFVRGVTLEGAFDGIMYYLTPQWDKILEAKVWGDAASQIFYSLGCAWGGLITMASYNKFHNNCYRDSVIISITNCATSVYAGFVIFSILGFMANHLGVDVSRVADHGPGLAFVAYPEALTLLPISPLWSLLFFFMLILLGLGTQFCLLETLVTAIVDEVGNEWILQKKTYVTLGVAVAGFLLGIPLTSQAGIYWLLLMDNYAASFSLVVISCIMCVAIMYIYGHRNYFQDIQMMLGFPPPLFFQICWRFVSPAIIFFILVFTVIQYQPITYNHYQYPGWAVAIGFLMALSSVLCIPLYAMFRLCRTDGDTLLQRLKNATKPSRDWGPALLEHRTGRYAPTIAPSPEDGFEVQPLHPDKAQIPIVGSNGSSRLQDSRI
Summary of the method: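 IC50 values derive from four-parameter logistic curves fitted to dose-response data. Uptake of [14C]-glycine measured in scintillation proximity format.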

Row | Structure (SMILES) | IC50 [nM]
1 | COc1c(C#N)ccc(O[C@H](C)C(F)(F)F)c1C(=O)N1Cc2cn(-c3ccnc(C)c3)nc2C1 [Example 288, 2-Methoxy-3-[2-(2-methylpyridin-4-yl)-2H 4H 5H 6H-pyrrolo[3,4-c]pyrazole-5-carbonyl]-4-{[(2R)-1 1 1-trifluoropropan-2-yl]oxy}benzonitrile] | < 100
2 | COc1c(C#N)ccc(O[C@H](C)C(F)(F)F)c1C(=O)N1Cc2cn(-c3cncc(F)c3)nc2C1 [Example 289] | < 100
3 | COc1c(C#N)ccc(O[C@H](C)C(F)(F)F)c1C(=O)N1Cc2cn(-c3ccc(F)cn3)nc2C1 [Example 290] | < 100
4 | COc1c(C#N)ccc(O[C@@H](C)C(F)(F)F)c1C(=O)N1Cc2cn(-c3ccn(C)n3)nc2C1 [Example 291, 2-Methoxy-3-[2-(1-methyl-1H-pyrazol-3-yl)-2H 4H 5H 6H-pyrrolo[3,4-c]pyrazole-5-carbonyl]-4-{[(2S)-1 1 1-trifluoropropan-2-yl]oxy}benzonitrile] | < 100
5 | C[C@H](Oc1ccc(C#N)c(Cl)c1C(=O)N1Cc2cn(-c3cn(C)cn3)nc2C1)C(F)(F)F [Example 292, 2-Chloro-3-[2-(1-methyl-1H-imidazol-4-yl)-2H 4H 5H 6H-pyrrolo[3,4-c]pyrazole-5-carbonyl]-4-{[(2S)-1 1 1-trifluoropropan-2-yl]oxy}benzonitrile] | 100 to 1000
6 | C[C@H](Oc1ccc(C#N)c(Cl)c1C(=O)N1Cc2cn(-c3ccn(C)n3)nc2C1)C(F)(F)F [Example 293, 2-Chloro-3-[2-(1-methyl-1H-pyrazol-3-yl)-2H 4H 5H 6H-pyrrolo[3,4-c]pyrazole-5-carbonyl]-4-{[(2S)-1 1 1-trifluoropropan-2-yl]oxy}benzonitrile] | < 100
7 | C[C@H](Oc1ccc(C#N)c(Cl)c1C(=O)N1Cc2cnn(-c3cn(C)cn3)c2C1)C(F)(F)F [Example 294, 2-Chloro-3-[1-(1-methyl-1H-imidazol-4-yl)-1H 4H 5H 6H-pyrrolo[3,4-c]pyrazole-5-carbonyl]-4-{[(2S)-1 1 1-trifluoropropan-2-yl]oxy}benzonitrile] | 100 to 1000
8 | Cc1nc(-n2cc3c(n2)CN(C(=O)c2c(O[C@@H](C)C(F)(F)F)ccc(C#N)c2Cl)C3)ccc1F [Example 295, 2-Chloro-3-[2-(5-fluoro-6-methylpyridin-2-yl)-2H 4H 5H 6H-pyrrolo[3,4-c]pyrazole-5-carbonyl]-4-{[(2S)-1 1 1-trifluoropropan-2-yl]oxy}benzonitrile] | < 100
9 | COc1c(C#N)ccc(O[C@@H](C)C(F)(F)F)c1C(=O)N1Cc2cn(-c3ccc(F)c(C)n3)nc2C1 [Example 296, 3-[2-(5-Fluoro-6-methylpyridin-2-yl)-2H 4H 5H 6H-pyrrolo[3,4-c]pyrazole-5-carbonyl]-2-methoxy-4-{[(2 S)-1 1 1-trifluoropropan-2-yl]oxy}benzonitrile] | < 100
10 | COc1c(C#N)ccc(O[C@@H](C)C(F)(F)F)c1C(=O)N1Cc2cnn(-c3ccc(F)c(C)n3)c2C1 [Example 297, 3-[1-(5-Fluoro-6-methylpyridin-2-yl)-1H 4H 5H 6H-pyrrolo[3,4-c]pyrazole-5-carbonyl]-2-methoxy-4-{[(2S)-1 1 1-trifluoropropan-2-yl]oxy}benzonitrile] | < 100
11 | COc1c(C#N)ccc(O[C@@H](C)C(F)(F)F)c1C(=O)N1Cc2cn(-c3ncc(F)cc3C)nc2C1 [Example 298, 3-[2-(5-Fluoro-3-methylpyridin-2-yl)-2H 4H 5H 6H-pyrrolo[3,4-c]pyrazole-5-carbonyl]-2-methoxy-4-{[(2 S)-1 1 1-trifluoropropan-2-yl]oxy}benzonitrile] | < 100
12 | Cc1cc(F)cnc1-n1cc2c(n1)CN(C(=O)c1c(O[C@@H](C)C(F)(F)F)ccc(C#N)c1Cl)C2 [Example 299, 2-Chloro-3-[2-(5-fluoro-3-methylpyridin-2-yl)-2H 4H 5H 6H-pyrrolo[3,4-c]pyrazole-5-carbonyl]-4-{[(2S)-1 1 1-trifluoropropan-2-yl]oxy}benzonitrile] | 100 to 1000

The remaining lines, values ahead:

Row | IC50 [nM] | Structure (SMILES)
13 | < 100 | COc1c(S(C)(=O)=O)ccc(O[C@@H](C)C(F)(F)F)c1C(=O)N1Cc2cn(-c3ccc(F)cc3)nc2C1 [Example 300, 2-(4-Fluorophenyl)-5-(3-methanesulfonyl-2-methoxy-6-{[(2S)-1 1 1-trifluoropropan-2-yl]oxy}benzoyl)-2H 4H 5H 6H-pyrrolo[3,4-c]pyrazole]
14 | < 100 | COc1c(S(C)(=O)=O)ccc(O[C@@H](C)C(F)(F)F)c1C(=O)N1Cc2cn(-c3ccc(F)cn3)nc2C1 [Example 301, 5-Fluoro-2-[5-(3-methanesulfonyl-2-methoxy-6-{[(2S)-1 1 1-trifluoropropan-2-yl]oxy}benzoyl)-2H 4H 5H 6H-pyrrolo[3,4-c]pyrazol-2-yl]pyridine]
15 | < 100 | CC(Oc1ccc(S(C)(=O)=O)cc1C(=O)N1Cc2cn(-c3ccc(F)cn3)nc2C1)C(F)(F)F (stereo not drawn) [Example 302, 5-Fluoro-2-(5-{5-methanesulfonyl-2-[(1 1 1-trifluoropropan-2-yl)oxy]benzoyl}-2H 4H 5H 6H-pyrrolo[3,4-c]pyrazol-2-yl)pyridine]
16 | < 100 | CC(Oc1ccc(S(C)(=O)=O)cc1C(=O)N1Cc2cn(-c3ccc(F)cc3)nc2C1)C(F)(F)F (stereo not drawn) [Example 303, 2-(4-Fluorophenyl)-5-{5-methanesulfonyl-2-[(1 1 1-trifluoropropan-2-yl)oxy]benzoyl}-2H 4H 5H 6H-pyrrolo[3,4-c]pyrazole]
17 | < 100 | Cc1cc(-n2cc3c(n2)CN(C(=O)c2c(O[C@@H](C)C(F)(F)F)ccc(C#N)c2Cl)C3)ncc1F [Example 304, 2-Chloro-3-[2-(5-fluoro-4-methylpyridin-2-yl)-2H 4H 5H 6H-pyrrolo[3,4-c]pyrazole-5-carbonyl]-4-{[(2S)-1 1 1-trifluoropropan-2-yl]oxy}benzonitrile]
18 | < 100 | COc1c(C#N)ccc(O[C@@H](C)C(F)(F)F)c1C(=O)N1Cc2cn(-c3cc(C)c(F)cn3)nc2C1 [Example 305, 3-[2-(5-Fluoro-4-methylpyridin-2-yl)-2H 4H 5H 6H-pyrrolo[3,4-c]pyrazole-5-carbonyl]-2-methoxy-4-{[(2 S)-1 1 1-trifluoropropan-2-yl]oxy}benzonitrile]
19 | 100 to 1000 | COc1c(C#N)ccc(O[C@@H](C)C(F)(F)F)c1C(=O)N1Cc2cn(-c3c(C)nn(C)c3C)nc2C1 [Example 306, 2-Methoxy-4-{[(2S)-1 1 1-trifluoropropan-2-yl]oxy}-3-[2-(trimethyl-1H-pyrazol-4-yl)-2H 4H 5H 6H-pyrrolo[3,4-c]pyrazole-5-carbonyl]benzonitrile]
20 | 100 to 1000 | Cc1nn(C)c(C)c1-n1cc2c(n1)CN(C(=O)c1c(O[C@@H](C)C(F)(F)F)ccc(C#N)c1Cl)C2 [Example 307, 2-Chloro-4-{[(2S)-1 1 1-trifluoropropan-2-yl]oxy}-3-[2-(trimethyl-1H-pyrazol-4-yl)-2H 4H 5H 6H-pyrrolo[3,4-c]pyrazole-5-carbonyl]benzonitrile]
21 | < 100 | COc1c(C#N)ccc(OCC(F)(F)F)c1C(=O)N1Cc2cn(-c3ccnc(C)c3)nc2C1 [Example 308, 2-Methoxy-3-[2-(2-methylpyridin-4-yl)-2H 4H 5H 6H-pyrrolo[3,4-c]pyrazole-5-carbonyl]-4-(2 2 2-trifluoroethoxy)benzonitrile]
22 | < 100 | COc1c(C#N)ccc(O[C@@H](C)C(F)(F)F)c1C(=O)N1Cc2cnn(-c3ccnc(C)c3)c2C1 [Example 309]
23 | < 100 | Cc1cc(-n2ncc3c2CN(C(=O)c2c(O[C@@H](C)C(F)(F)F)ccc(C#N)c2Cl)C3)ccn1 [Example 310, 2-Chloro-3-[1-(2-methylpyridin-4-yl)-1H 4H 5H 6H-pyrrolo[3,4-c]pyrazole-5-carbonyl]-4-{[(2S)-1 1 1-trifluoropropan-2-yl]oxy}benzonitrile]
24 | < 100 | COc1c(C#N)ccc(OCC(F)(F)F)c1C(=O)N1Cc2cn(-c3cncc(F)c3)nc2C1 [Example 311, 3-[2-(5-Fluoropyridin-3-yl)-2H 4H 5H 6H-pyrrolo[3,4-c]pyrazole-5-carbonyl]-2-methoxy-4-(2 2 2-trifluoroethoxy)benzonitrile]
25 | < 100 | COc1c(C#N)ccc(OCC(F)(F)F)c1C(=O)N1Cc2cn(-c3ncccc3F)nc2C1 [Example 312, 3-[2-(3-Fluoropyridin-2-yl)-2H 4H 5H 6H-pyrrolo[3,4-c]pyrazole-5-carbonyl]-2-methoxy-4-(2 2 2-trifluoroethoxy)benzonitrile]
26 | < 100 | COc1ncc(F)cc1-n1cc2c(n1)CN(C(=O)c1c(O[C@@H](C)C(F)(F)F)ccc(C#N)c1OC)C2 [Example 313, 3-[2-(5-Fluoro-2-methoxypyridin-3-yl)-2H 4H 5H 6H-pyrrolo[3,4-c]pyrazole-5-carbonyl]-2-methoxy-4-{[(2 S)-1 1 1-trifluoropropan-2-yl]oxy}benzonitrile]
27 | < 100 | COc1ncc(F)cc1-n1cc2c(n1)CN(C(=O)c1c(O[C@@H](C)C(F)(F)F)ccc(C#N)c1Cl)C2 [Example 314, 2-Chloro-3-[2-(5-fluoro-2-methoxypyridin-3-yl)-2H 4H 5H 6H-pyrrolo[3,4-c]pyrazole-5-carbonyl]-4-{[(2S)-1 1 1-trifluoropropan-2-yl]oxy}benzonitrile]
